Experimental data reported in patent publication EP3283473B1, “GHRELIN O-ACYL TRANSFERASE INHIBITORS” (Eli Lilly and Company, priority 2015, dated 2016).

Target: T1, GOAT enzyme (Mus musculus, UniProt P0C7A3)
T1 construct: from tissue; host or cells: living male C57BL/6 mice (endogenous enzyme)
T1 sequence (P0C7A3 1-435): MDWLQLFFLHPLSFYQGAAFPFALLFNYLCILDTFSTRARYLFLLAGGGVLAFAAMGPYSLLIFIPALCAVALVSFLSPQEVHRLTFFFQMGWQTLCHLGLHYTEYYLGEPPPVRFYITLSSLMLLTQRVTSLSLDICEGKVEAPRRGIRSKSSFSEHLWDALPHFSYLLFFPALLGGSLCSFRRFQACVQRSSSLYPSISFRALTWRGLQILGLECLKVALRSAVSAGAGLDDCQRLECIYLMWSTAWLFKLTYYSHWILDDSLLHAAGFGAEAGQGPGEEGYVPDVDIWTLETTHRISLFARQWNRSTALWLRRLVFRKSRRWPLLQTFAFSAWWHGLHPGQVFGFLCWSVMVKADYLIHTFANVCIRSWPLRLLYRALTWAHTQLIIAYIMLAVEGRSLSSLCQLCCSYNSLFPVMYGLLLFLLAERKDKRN
Test: In vivo dose dependent 3 day BID study for GOAT inhibitor (plasma AG and UAG by ELISA)
Parameters: species or system male C57BL/6 mice
Settings: for decreases plasma AG / increases UAG: administration for 3 days; for decreases plasma AG / increases UAG / AG (% of control) / AG/total-ghrelin (% of vehicle control) / UAG (% of vehicle control): mice; for reduction in AG to total ghrelin ratio: compared to vehicle-treated control animals; for AG (% of control) / AG/total-ghrelin (% of vehicle control) / UAG (% of vehicle control): oral gavage BID, 3 days, plasma
Protocol: Comparing the change in the ratio of AG to total ghrelin in the compound treated group and that of the vehicle treated group reflects the degree of GOAT enzyme inhibition in vivo, due to the dynamic processing of UAG to AG by the GOAT enzyme. In the in vivo pharmacodynamic studies herein, the levels of AG and UAG in plasma and stomach in the vehicle and compound treated groups are measured by ELISA specifically to these two analytes. The total ghrelin level of each sample is computed as the sum of AG and UAG by these ELISA measurements. The ratio of AG to total ghrelin is defined by the level of AG in each sample divided by the level of total ghrelin in the same sample. The levels of AG, UAG and ratio of AG to total ghrelin in the vehicle treated group is computed and set as 100%. The relative change of these parameters in the compound treated group is then computed to determine the effectiveness of the test compound.
Purchase male C57BL/6 mice from Harlan (Indianapolis, IN) at 9 weeks of age. House the mice individually in a temperature-controlled (24 °C) facility with a 12 hours light/dark cycle (lights on 2200 h), and allow free access to a standard rodent chow (diet 2014, Harlan) and water. Typically, use the mice when they are 10-13 weeks of age at the time of the study. On day 0 of the experiment, randomize the mice into treatment groups (N=7/group) so each group has similar mean body weights. On day 1 and day 2, treat the animals with vehicle (1% hydroxyethylcellulose, 0.25% TWEEN™ 80, 0.05% antifoam) or test compound prepared in the vehicle as suspension at various dosages by oral gavage at 7 am and 7 pm. On day 3, fast the animals, move them into clean cages and dose with vehicle or the test compound again at 8 am by oral gavage. That same day at 1 pm, sacrifice the animals by decapitation to collect blood. For details of blood collection and plasma treatments see Blood collection and Extraction of Ghrelin from Plasma section below.
Collect approximately 600 µL blood into a pre-weighed EDTA tube containing 600 µL (defined as Vpreservative) freshly-prepared preservative (4 mM PEFABLOC® [4-(2-aminoethyl) benzenesulfonyl fluoride hydrochloride], 72 mM NaCl, 58 mM NaF, 0.032 N hydrochloric acid, pH 3.0) and mix immediately. Weigh the tube again and keep on ice. To accurately determine the exact blood volume of each sample using this blood collection procedure, the weight of the blood for each mouse is computed using the following equation: Weight of Blood = (Weight of the tube containing Blood + preservative)−; (Weight of the tube containing preservative) [formula] Blood volume(Vblood) = (Weight of blood)/1.06 [formula]
Within 15 minutes after the blood collection, samples are centrifuged at 5000 rpm at 4 °C for 8 min. Remove plasma (650 µL) to a 5 mL glass tube containing 1 N hydrochloric acid (65µL), mix and keep on ice.
AG and UAG are extracted from plasma using SEP-PAK®_C18 column to remove interference prior to performing the ELISA. The solid phase extraction of AG and UAG peptides by SEP-PAK®_C18 columns can be performed on a vacuum manifold (Waters Corp) or using a peristaltic pump. The sample SEP-PAK®_column extraction procedure is independently applied to the plasma sample obtained from each individual mouse. The general extraction protocol is described as follows.
All solutions used for the entire protocol of the SEP-PAK® column extraction should be at ice cold condition. Wet SEP-PAK®_columns (WAT054960, Waters Corp, Milford MA) with 99.9% ACN/0.1% TFA (1 mL of solution of 100 mL ACN/0.1 mL TFA). […] Once liquid is removed from the column, stop the pressure. Equilibrate the columns with 3% ACN/0.1% TFA (1 mL of 97 mL water, 3 mL ACN, 0.1 mL TFA). […] Dilute approximately 650 µL acidified plasma (defined as Vplasma added to column) to 1.4 mL ice cold 0.1% TFA. Load all diluted acidified plasma from the previous step onto the columns. […]

SMILES: Cc1nc(C(F)(F)F)nc(N)c1CCC1CCN(C(=O)[C@H](C)NC(=O)c2ccnn2C)CC1 [Example 2, N-[(1S)-2-[4-[2-[4-Amino-6-methyl-2-(trifluoromethyl)pyrimidin-5-yl]ethyl]-1-piperidyl]-1-methyl-2-oxo-ethyl]-2-methyl-pyrazole-3-carboxamide]
- decreases plasma AG (0.1 mg/kg): 40%
- increases UAG (0.1 mg/kg): 2.10 fold
- reduction in AG to total ghrelin ratio (0.1 mg/kg): 57%
- AG (% of control) (0.1 mg/kg): 60 ± 8 (n=7) % of control
- AG/total-ghrelin (% of vehicle control) (0.1 mg/kg): 43 ± 3 (n=7) % of vehicle control
- UAG (% of vehicle control) (0.1 mg/kg): 210 ± 43 (n=7) % of vehicle control
- decreases plasma AG (0.3 mg/kg): 60%
- increases UAG (0.3 mg/kg): 2.22 fold
- reduction in AG to total ghrelin ratio (0.3 mg/kg): 62%
- AG (% of control) (0.3 mg/kg): 40 ± 10 (n=7) % of control
- AG/total-ghrelin (% of vehicle control) (0.3 mg/kg): 28 ± 1 (n=7) % of vehicle control
- UAG (% of vehicle control) (0.3 mg/kg): 222 ± 54 (n=7) % of vehicle control
- decreases plasma AG (1 mg/kg): 56%
- increases UAG (1 mg/kg): 3.57 fold
- reduction in AG to total ghrelin ratio (1 mg/kg): 79%
- AG (% of control) (1 mg/kg): 44 ± 6 (n=14) % of control
- AG/total-ghrelin (% of vehicle control) (1 mg/kg): 21 ± 1 (n=14) % of vehicle control
- UAG (% of vehicle control) (1 mg/kg): 357 ± 30 (n=14) % of vehicle control
- decreases plasma AG (3 mg/kg): 63%
- increases UAG (3 mg/kg): 3.49 fold
- reduction in AG to total ghrelin ratio (3 mg/kg): 82%
- AG (% of control) (3 mg/kg): 37 ± 9.6 (n=14) % of control
- AG/total-ghrelin (% of vehicle control) (3 mg/kg): 18 ± 5 (n=14) % of vehicle control
- UAG (% of vehicle control) (3 mg/kg): 349 ± 41 (n=14) % of vehicle control
- decreases plasma AG (10 mg/kg): 63%
- increases UAG (10 mg/kg): 3.78 fold
- reduction in AG to total ghrelin ratio (10 mg/kg): 82%
- AG (% of control) (10 mg/kg): 37 ± 9.9 (n=7) % of control
- AG/total-ghrelin (% of vehicle control) (10 mg/kg): 18 ± 3 (n=7) % of vehicle control
- UAG (% of vehicle control) (10 mg/kg): 378 ± 59 (n=7) % of vehicle control
